Experiment: Accelerated H2O2 stability study with individual ingredients of backing, anchor and oral care layers
Type: physicochemical
Settings: 40° C./75% RH, up to 9 weeks
Protocol: Accelerated H2O2 stability studies were conducted at 40° C./75% relative humidity (RH) with the individual ingredients used to form the backing, anchor and oral care layers as described in Example 1.

OO [Device H2O2, hydrogen peroxide]
H2O2 stability: good stability

From patent publication US8956160B2, “Device and method for delivering an oral care agent” (Ranir, LLC, priority 2002, dated 2015)
